The text below walks through data of PubChem BioAssay (NCI).

Several values for one entry are separate records, joined by “and”; a condition that tells them apart may be missing. Equal values may be shown once.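 Briefly, cells in 96-well plates were exposed to five compound concentrations for 48 h, and endpoints were estimated by linear interpolation. Abbreviation: GI50, concentration required for 50% inhibition of growth. TGI is the concentration that stops growth completely.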 Bounds are passed on as bounds.

Some test systems named below: KM12 colon; SK-MEL-28 melanoma; SW-620 colon; OVCAR-3 ovarian; RPMI-8226 leukemia; SF-268 CNS; EKVX NSCLC; IGROV1 ovarian; SF-295 CNS; NCI/ADR-RES ovarian.
Experiment in all cases: DTP human tumour cell line panel, 48 h

Usually TGI stands for the concentration giving total growth inhibition. The low end stands for greater sensitivity of the cells, the high end for lower sensitivity of the cells. For orientation: GI50 means the concentration that inhibits growth by half.

As to `COC(=O)c1onc(C2OC(C)(C)OC2C(O)COC(c2ccccc2)(c2ccccc2)c2ccccc2)c1C(=O)OC` (stereo not given), the TGI in the assay on KM12 colon, with SK-MEL-28 melanoma, in the assay on SW-620 colon, in the assay on OVCAR-3 ovarian, in the assay on RPMI-8226 leukemia and in the assay with SF-268 CNS was greater than 100 µM in each case. This compound came in with a TGI in the assay on EKVX NSCLC greater than 100 µM.

Turning to `C/C(=C\Cc1ccc(F)cc1)CCCCCC/C(C)=C/Cc1ccc(F)cc1`, the TGI was found to be 5.61 µM in the assay on KM12 colon; 26.7 µM with IGROV1 ovarian; 24.6 µM in the assay with SF-295 CNS; 48.6 µM in the assay on SW-620 colon; 53.8 µM with OVCAR-3 ovarian; 37.2 µM in the assay on SF-268 CNS. Moreover, the total growth inhibition concentration (TGI) with EKVX NSCLC turned out to be 37.2 µM; in the assay with NCI/ADR-RES ovarian, 31.9 µM.

Take `O=[N+]([O-])c1ccc(N2N=C(c3c(O)ccc4ccccc34)CC2c2ccc(Cl)cc2)c([N+](=O)[O-])c1` (stereo not given): the TGI was 45.5 µM in the assay on KM12 colon; greater than 100 µM with IGROV1 ovarian; 39.1 µM in the assay with SF-295 CNS; greater than 100 µM in the assay on SK-MEL-28 melanoma; greater than 100 µM in the assay with SW-620 colon; greater than 100 µM in the assay with OVCAR-3 ovarian. In addition, the TGI in the assay with RPMI-8226 leukemia was greater than 100 µM; in the assay on SF-268 CNS, greater than 100 µM; in the assay with NCI/ADR-RES ovarian it was 55.6 µM.

For the compound `O=C(O)Cn1c2c(c3c1-c1ccccc1C3=O)C(=O)CCC2`, the GI50 with KM12 colon, in the assay on IGROV1 ovarian, with SF-295 CNS, in the assay with SK-MEL-28 melanoma, with SW-620 colon and with OVCAR-3 ovarian was greater than 100 µM in each case. Moreover, the GI50 in the assay with SF-268 CNS, in the assay on EKVX NSCLC and with NCI/ADR-RES ovarian was greater than 100 µM each time. The TGI in the assay on KM12 colon, with IGROV1 ovarian, with SF-295 CNS, with SK-MEL-28 melanoma, in the assay on SW-620 colon and in the assay on OVCAR-3 ovarian was greater than 100 µM each time. Also, the TGI in the assay on SF-268 CNS, with EKVX NSCLC and in the assay on NCI/ADR-RES ovarian was greater than 100 µM throughout.

As to `COc1cccc(C(C#N)NNC(=O)c2c(Cl)c(Cl)c(Cl)c(Cl)c2-c2nc3ccc(C(=O)c4ccccc4)cc3[nH]2)c1O` (stereo not given), the TGI with KM12 colon was greater than 100 µM; in the assay with IGROV1 ovarian, greater than 100 µM; in the assay with SF-295 CNS, 4.69 µM; with SK-MEL-28 melanoma it was greater than 100 µM; with SW-620 colon, greater than 100 µM; in the assay on RPMI-8226 leukemia, greater than 100 µM. Further, the TGI with EKVX NSCLC was greater than 100 µM.

On to `Oc1c(Cl)cc2cc1-c1cc(cc(Cl)c1O)CCc1c(cc(Cl)c(O)c1Cl)-c1cc(Cl)c(c(Cl)c1O)/C=C\2`, for which the TGI in the assay on KM12 colon was 15.1 µM; in the assay on IGROV1 ovarian, 18.3 µM; with SK-MEL-28 melanoma, 19.3 µM; in the assay with SW-620 colon, 31.5 µM; with OVCAR-3 ovarian, 14.4 µM; in the assay with RPMI-8226 leukemia it was greater than 50 µM. Moreover, the TGI in the assay on SF-268 CNS came out at 23.6 µM; in the assay with NCI/ADR-RES ovarian, 30.8 µM.

Take `CC(C)[C@H](C)/C=C/[C@@H](C)C1CC[C@H]2[C@@]34C=C[C@]5(C[C@@H](O)CC[C@]5(C)[C@H]3CC[C@]12C)OO4` (stereo not given in full): the TGI is greater than 100 µM with KM12 colon; greater than 100 µM with IGROV1 ovarian; greater than 100 µM in the assay with SF-295 CNS; greater than 100 µM in the assay on SK-MEL-28 melanoma; 78.8 µM in the assay on SW-620 colon; greater than 100 µM in the assay on OVCAR-3 ovarian. Further, the TGI was greater than 100 µM in the assay with SF-268 CNS, greater than 100 µM with EKVX NSCLC and 50.2 µM with NCI/ADR-RES ovarian.

As for `Cc1nc2ccc(Br)cc2c(=O)n1-c1ccc(N)cc1`, the TGI with KM12 colon, in the assay on IGROV1 ovarian, with SF-295 CNS, in the assay on SK-MEL-28 melanoma, with SW-620 colon and in the assay on OVCAR-3 ovarian was greater than 100 µM throughout. The TGI in the assay on SF-268 CNS, in the assay with EKVX NSCLC and with NCI/ADR-RES ovarian was greater than 100 µM each time.

As for `O=CC(O)C(O)C(O)C(O)COC(=O)NCCCCC(=O)C(F)(F)C(F)(F)C(F)(F)C(F)(F)C(F)(F)C(F)(F)C(F)(F)F` (stereo not given), the TGI in the assay with KM12 colon is 46.4 µM; in the assay on IGROV1 ovarian, greater than 100 µM; in the assay with SF-295 CNS, 59.3 µM; in the assay on SK-MEL-28 melanoma it was greater than 100 µM; in the assay on SW-620 colon, 42.1 µM; in the assay on OVCAR-3 ovarian it was greater than 100 µM. Further, the TGI was greater than 100 µM in the assay with RPMI-8226 leukemia, 93.5 µM in the assay with SF-268 CNS and greater than 100 µM in the assay with NCI/ADR-RES ovarian.

As to `c1ccc2c(Nc3ncco3)cccc2c1`, the TGI in the assay on KM12 colon, in the assay on IGROV1 ovarian, with SF-295 CNS, in the assay with SK-MEL-28 melanoma, in the assay on SW-620 colon and in the assay on OVCAR-3 ovarian was greater than 10 µM each time. Besides, the TGI with SF-268 CNS, in the assay with EKVX NSCLC and in the assay on NCI/ADR-RES ovarian was greater than 10 µM throughout.

Regarding `COc1cc2nc(N3CCC[C@H](NC4=CC(=O)c5ccccc5C4=O)C3)nc(N)c2cc1OC`, the GI50 was 1.77 µM in the assay with KM12 colon; 2.07 µM in the assay on IGROV1 ovarian; 1.96 µM with SF-295 CNS; 1.97 µM with SK-MEL-28 melanoma; 1.5 µM with SW-620 colon; 1.89 µM in the assay with OVCAR-3 ovarian. Besides, the GI50 in the assay on RPMI-8226 leukemia is 1.98 µM; in the assay with SF-268 CNS, 1.82 µM; with NCI/ADR-RES ovarian it was 2.34 µM. Besides, the TGI in the assay with KM12 colon is 3.22 µM; in the assay with IGROV1 ovarian, 4.27 µM; in the assay with SF-295 CNS it was 4.06 µM; with SK-MEL-28 melanoma, 3.67 µM; in the assay on SW-620 colon, 3.32 µM; in the assay on OVCAR-3 ovarian it was 3.43 µM. Moreover, the TGI worked out at 4.84 µM with RPMI-8226 leukemia, 3.61 µM with SF-268 CNS and 5.44 µM in the assay with NCI/ADR-RES ovarian.

Take `CC(=O)OCC1OC(SC2=NC(=O)CS2)C(OC(C)=O)C(OC(C)=O)C1OC(C)=O` (stereo not given): the TGI with KM12 colon, in the assay with IGROV1 ovarian, in the assay with SF-295 CNS, in the assay on SK-MEL-28 melanoma, in the assay on SW-620 colon and with OVCAR-3 ovarian was greater than 100 µM throughout. The TGI is 90 µM and > 100 µM with RPMI-8226 leukemia; greater than 100 µM with SF-268 CNS; greater than 100 µM in the assay on NCI/ADR-RES ovarian.
